From patent publication US6797694B2, “Chemical compounds having ion channel blocking activity for the treatment of immune dysfunction” (priority 1999, dated 2004)

Tested on: T cells
Assay: Inhibition of antigen (PPD) induced T cell proliferation, [3H]thymidine incorporation
Type: cell-based
Settings: solvent control 26.1
Experimental: The chemical compounds used according to the invention prevent immunological proliferation by selective inhibition of the Ca^2+-activated K-channels in T- and B-lymphocytes. This effect may be verified using various proliferation assays. In this experiment the proliferative assay described by Ødum et al. [Ødum N, Kanner S B, Ledbetter J A, & Svejgaard A; J. Immunol. 1993 150 (12) 5289-5298] was used.
Assays were performed in culture medium (RPMI 1640; available from Gibco, Grand Island, N.Y.) supplemented with 10% pooled human serum, 2 mM L-glutamine, 100 μg/ml penicillin, and 100 μg/ml streptomycin (available from Novo Nordisk, Copenhagen, Denmark) in 96-well round bottom tissue culture plates (available from Nunc, Roskilde, Denmark) with a final volume of 200 μl.
T cells were pre-incubated for three hours with the test compounds before addition of antigen (PPD; Purified protein derivative, available from Statens Serum Institut, Denmark; 100 μg/ml). T cells were cultured at 5×10^4 cells/well for 144 hours. Twelve hours before harvest, [^3H]thymidine ([…]) was added. The cells were harvested onto glass fibre filters, and the [^3H]thymidine incorporation was measured in a scintillation counter. The results were expressed as mean counts per minute (cpm) from triplicate cultures.

SMILES	T Cell Proliferation (test compound 10 μM) [cpm × 10^−3]	T Cell Proliferation (test compound 25 μM) [cpm × 10^−3]
OC(c1ccccc1)(c1ccccc1)c1ccc(Cl)cc1 [A, (4-chlorophenyl-diphenyl)-carbinol]	19.8	18.1
CC(=O)C(c1ccccc1)(c1ccccc1)c1ccccc1 [C, 1,1,1-triphenylacetone]	18	19
